Data on three compounds can be found in patent publication US9481709B2, “Boropeptide inhibitors of enteropeptidase and their uses in treatment of obesity, overweight and/or diseases associated with an abnormal fat metabolism” (OBE THERAPY BIOTECHNOLOGY, priority 2007, dated 2016).

Test [1] concerns the target T1, Plasmin from human plasma (Homo sapiens, UniProt P00747).
T1 construct: Plasmin from human plasma; purchased SIGMA P1867; host or cells: human plasma
Description: Plasmin assay. It counts as biochemical. The following applies: in vitro. How it is done: (§1) 2.2. Thrombin, Trypsin, Kallikrein, Plasmin, Chymotrypsin and Elastase Assay
(§2) Table IV below lists the final concentrations of the tested enzymes and the corresponding substrates, in the determination of the IC50 without inhibitor (positive control) and in inhibition protocols:
(§3) Measurement without Inhibitor (Positive Control)
(§4) In 17 μl of TN, 1 μl of enzyme and 2 μl of substrate was mixed, just before reading; The Absorbance was measured at 405 nm on EnVision (Perkin Elmer).
(§5) Inhibition in 384 Well Plate Small Volume ([…])
(§6) In 15 μl of TN, 1 μl of enzyme and 2 μl of Inhibitor (compound of the invention) at different concentrations were mixed and incubated at RT for 30 minutes; 2 μl of substrate was added, just before reading; The Absorbance was measured at 405 nm on EnVision (Perkin Elmer).

The next test concerns the target Kallikrein (Homo sapiens, UniProt P03952). Description: Kallikrein. From the text:
(§7) Table printed on a drawing sheet, Fig. 5
Head of the field: Kallikrein
(§8) The patent's description of the figure: FIG. 5 is a Table showing the IC 50 (in nM) of enteropeptidase, various serine proteases and other enzyme families, in the presence of compounds OBE 1999, OBE 2000, OBE 2001 or OBE 2002.
(§9) First copying reader's note: Each column is one compound; each row gives its IC50 against the named enzyme.
Where the first naming reader finds the target: head: Kallikrein

In another test the target is Plasmin (Homo sapiens, UniProt P00747). The experiment in a line: Plasmin.
Chain of Plasmin (P00747 97-810): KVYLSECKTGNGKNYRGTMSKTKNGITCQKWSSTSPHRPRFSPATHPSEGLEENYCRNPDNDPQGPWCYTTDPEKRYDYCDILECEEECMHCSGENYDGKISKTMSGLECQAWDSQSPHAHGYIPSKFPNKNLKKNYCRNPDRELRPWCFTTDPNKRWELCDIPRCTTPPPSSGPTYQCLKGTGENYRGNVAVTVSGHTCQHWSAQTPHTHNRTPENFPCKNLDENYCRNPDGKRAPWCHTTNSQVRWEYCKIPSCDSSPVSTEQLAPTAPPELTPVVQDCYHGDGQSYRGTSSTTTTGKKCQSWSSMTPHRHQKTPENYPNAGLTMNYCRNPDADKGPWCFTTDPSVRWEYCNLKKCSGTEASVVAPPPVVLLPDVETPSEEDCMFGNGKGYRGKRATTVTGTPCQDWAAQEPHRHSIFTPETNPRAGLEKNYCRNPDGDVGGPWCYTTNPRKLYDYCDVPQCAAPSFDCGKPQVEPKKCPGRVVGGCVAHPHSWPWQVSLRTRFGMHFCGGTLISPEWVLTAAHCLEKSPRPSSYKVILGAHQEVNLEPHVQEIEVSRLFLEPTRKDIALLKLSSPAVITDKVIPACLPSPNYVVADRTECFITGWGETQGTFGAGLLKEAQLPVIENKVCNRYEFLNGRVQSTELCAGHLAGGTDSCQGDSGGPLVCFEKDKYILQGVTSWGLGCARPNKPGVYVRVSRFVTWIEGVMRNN
Text: as §7
Head of the field: Plasmin
as §8, §9
Where the first naming reader finds the target: head: Plasmin

The target in test [2] is T2, Enteropeptidase (Homo sapiens, UniProt P98073). Description: Enteropeptidase.
Text: as §7
Target sequence in this assay (P98073 2-1019): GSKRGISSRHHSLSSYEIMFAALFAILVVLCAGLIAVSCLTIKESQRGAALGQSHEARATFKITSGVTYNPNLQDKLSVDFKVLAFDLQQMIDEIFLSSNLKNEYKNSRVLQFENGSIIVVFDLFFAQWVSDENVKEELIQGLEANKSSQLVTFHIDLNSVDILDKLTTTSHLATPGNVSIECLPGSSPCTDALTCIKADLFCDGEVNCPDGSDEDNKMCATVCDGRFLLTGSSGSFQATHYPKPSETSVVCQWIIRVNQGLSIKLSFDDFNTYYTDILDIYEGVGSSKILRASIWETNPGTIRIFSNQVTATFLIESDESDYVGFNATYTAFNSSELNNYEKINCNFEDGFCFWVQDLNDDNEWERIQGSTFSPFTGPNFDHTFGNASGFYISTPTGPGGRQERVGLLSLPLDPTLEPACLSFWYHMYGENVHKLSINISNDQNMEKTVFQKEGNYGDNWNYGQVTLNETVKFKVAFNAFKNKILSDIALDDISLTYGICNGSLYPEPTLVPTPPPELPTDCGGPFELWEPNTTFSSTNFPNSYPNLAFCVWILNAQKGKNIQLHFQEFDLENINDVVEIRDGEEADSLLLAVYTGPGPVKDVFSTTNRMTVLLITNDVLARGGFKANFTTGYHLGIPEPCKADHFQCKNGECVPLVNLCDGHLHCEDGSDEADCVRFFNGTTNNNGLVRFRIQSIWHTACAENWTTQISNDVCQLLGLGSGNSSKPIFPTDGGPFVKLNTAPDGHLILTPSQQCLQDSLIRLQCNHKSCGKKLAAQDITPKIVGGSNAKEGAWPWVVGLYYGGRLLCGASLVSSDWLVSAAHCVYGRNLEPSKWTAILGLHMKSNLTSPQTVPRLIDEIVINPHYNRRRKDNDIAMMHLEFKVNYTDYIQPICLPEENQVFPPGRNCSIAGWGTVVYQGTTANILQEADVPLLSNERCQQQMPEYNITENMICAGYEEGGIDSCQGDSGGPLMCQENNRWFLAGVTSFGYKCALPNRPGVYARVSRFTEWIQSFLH
Head of the field: Enteropeptidase
as §8, §9
Where the first naming reader finds the target: head: Enteropeptidase

The target of test [3] is T3, Kallikrein from human plasma (Homo sapiens, UniProt P03952).
T3 construct: Kallikrein from human plasma; purchased SIGMA K2638; host or cells: human plasma
T3 sequence (P03952 391-638 limits assumed): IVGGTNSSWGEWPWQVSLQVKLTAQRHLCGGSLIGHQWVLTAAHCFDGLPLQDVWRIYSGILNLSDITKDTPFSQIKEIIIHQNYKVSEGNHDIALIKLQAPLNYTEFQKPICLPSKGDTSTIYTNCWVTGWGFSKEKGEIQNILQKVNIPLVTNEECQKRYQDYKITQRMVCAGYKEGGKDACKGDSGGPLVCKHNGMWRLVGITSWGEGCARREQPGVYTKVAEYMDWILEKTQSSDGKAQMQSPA
T3 sequence (P03952 20-390 partner limits assumed): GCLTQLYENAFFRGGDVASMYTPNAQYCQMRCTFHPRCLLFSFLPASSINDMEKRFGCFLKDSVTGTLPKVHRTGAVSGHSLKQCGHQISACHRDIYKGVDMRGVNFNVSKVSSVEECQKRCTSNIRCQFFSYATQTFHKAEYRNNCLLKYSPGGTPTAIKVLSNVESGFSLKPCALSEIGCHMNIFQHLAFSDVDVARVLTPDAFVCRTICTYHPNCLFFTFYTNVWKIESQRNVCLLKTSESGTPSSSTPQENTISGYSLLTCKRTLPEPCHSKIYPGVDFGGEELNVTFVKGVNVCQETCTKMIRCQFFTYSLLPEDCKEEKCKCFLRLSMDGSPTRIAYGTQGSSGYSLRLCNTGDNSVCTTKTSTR
The experiment in a line: Kallikrein assay. To be noted: in vitro. The format is biochemical. How it is done: as §1, §2, §3, §4, §5, §6

The target of a further test is Trypsin (Homo sapiens, UniProt P07477). The experiment in a line: Trypsin.
Text: as §7
Head of the field: Trypsin
as §8, §9
Where the first naming reader finds the target: head: Trypsin

For test [4], the target named is T4, Thrombin from human plasma (Homo sapiens, UniProt P00734).
T4 construct: Thrombin from human plasma; purchased SIGMA T1063; host or cells: human plasma
The experiment in a line: Thrombin assay. The format is biochemical. The following applies: in vitro. How it is done: as §1, §2, §3, §4, §5, §6

A further test concerns the target Thrombin (Homo sapiens, UniProt P00734). Description: Thrombin.
Text: as §7
Head of the field: Thrombin
as §8, §9
Where the first naming reader finds the target: head: Thrombin

Test [5] concerns the target T2, Enteropeptidase. The experiment in a line: Enteropeptidase assay (Np Tosyl Gly Pro Arg pNa substrate, absorbance 405 nm). It counts as biochemical. Details: purchased RD system 1585SE. To be noted: in vitro, 30 min preincubation at RT. How it is done:
2.1. Enteropeptidase Assay
Activation of the Enteropeptidase
A mix of enteropeptidase at 58.8 nM (final) and thermolysine at 1.58 ng/I (final) in TCN buffer was prepared; the mix was incubated at 37° C. during 30 minutes for activation. Phosphoramidon (10 μM final) was added to stop the activation by thermolysine.
Measurement of Enteropeptidase Activity without Inhibitor (Positive Control)
In 17 μl of TCN, 1 μl of active enzyme (2.9 nm final) and 2 μl Np Tosyl Gly Pro Arg pNa (1 mM final) were mixed, just before reading. The Absorbance was measured at 405 nm on EnVision (Perkin Elmer).
as §5
Target sequence in this assay (P98073 785-1019 limits assumed): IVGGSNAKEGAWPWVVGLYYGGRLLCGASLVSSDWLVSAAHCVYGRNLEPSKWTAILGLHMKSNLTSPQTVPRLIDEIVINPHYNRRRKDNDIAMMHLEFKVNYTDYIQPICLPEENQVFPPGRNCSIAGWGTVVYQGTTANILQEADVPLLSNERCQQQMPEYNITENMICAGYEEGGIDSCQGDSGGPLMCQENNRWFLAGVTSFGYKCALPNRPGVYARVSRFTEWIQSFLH
Target sequence in this assay (P98073 2-784 partner limits assumed): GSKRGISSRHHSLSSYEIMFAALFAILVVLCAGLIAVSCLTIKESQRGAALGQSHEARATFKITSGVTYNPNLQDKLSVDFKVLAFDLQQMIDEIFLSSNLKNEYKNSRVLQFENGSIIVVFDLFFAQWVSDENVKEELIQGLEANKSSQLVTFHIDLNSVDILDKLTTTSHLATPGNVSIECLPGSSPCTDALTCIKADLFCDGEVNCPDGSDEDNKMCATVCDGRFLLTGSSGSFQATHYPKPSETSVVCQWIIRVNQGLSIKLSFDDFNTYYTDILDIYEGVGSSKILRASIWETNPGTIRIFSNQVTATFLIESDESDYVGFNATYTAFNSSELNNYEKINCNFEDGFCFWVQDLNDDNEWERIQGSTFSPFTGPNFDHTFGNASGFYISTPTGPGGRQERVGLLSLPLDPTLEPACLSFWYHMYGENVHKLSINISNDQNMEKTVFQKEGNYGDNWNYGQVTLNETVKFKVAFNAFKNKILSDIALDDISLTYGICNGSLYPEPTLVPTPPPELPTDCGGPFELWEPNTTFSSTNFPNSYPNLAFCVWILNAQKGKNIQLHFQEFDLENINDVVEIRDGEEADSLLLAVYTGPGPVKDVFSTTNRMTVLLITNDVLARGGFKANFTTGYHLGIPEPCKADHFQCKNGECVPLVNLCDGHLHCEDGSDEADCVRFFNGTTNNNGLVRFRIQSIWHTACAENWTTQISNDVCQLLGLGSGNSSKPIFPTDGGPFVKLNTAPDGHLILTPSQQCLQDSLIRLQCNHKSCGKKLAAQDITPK
In 15 μl of TCN, 1 μl of active enzyme and 2 μl of Inhibitor (compound of the invention) at different concentrations were mixed, and incubated at RT (room temperature) for 30 minutes; 2 μl Np Tosyl Gly Pro Arg pNa (1 mM final) was added just before reading. The Absorbance was measured at 405 nm on EnVision (Perkin Elmer).

Test [6] addresses T5, Trypsin from human pancreas (Homo sapiens, UniProt P07477).
T5 construct: Trypsin from human pancreas; purchased SIGMA T6424; host or cells: human pancreas
Description: Trypsin assay. The format is biochemical. The following applies: in vitro; range printed jointly for trypsin, kallikrein and plasmin. How it is done: as §1, §2, §3, §4, §5, §6

T1 sequence (P00747 581-810 limits assumed): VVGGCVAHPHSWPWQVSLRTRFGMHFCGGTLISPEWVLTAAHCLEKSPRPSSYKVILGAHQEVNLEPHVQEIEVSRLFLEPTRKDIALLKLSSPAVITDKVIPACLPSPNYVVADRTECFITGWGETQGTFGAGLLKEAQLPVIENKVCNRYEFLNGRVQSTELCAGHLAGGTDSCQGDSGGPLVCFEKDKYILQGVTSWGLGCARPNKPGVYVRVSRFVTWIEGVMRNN
T1 sequence (P00747 98-580 partner limits assumed): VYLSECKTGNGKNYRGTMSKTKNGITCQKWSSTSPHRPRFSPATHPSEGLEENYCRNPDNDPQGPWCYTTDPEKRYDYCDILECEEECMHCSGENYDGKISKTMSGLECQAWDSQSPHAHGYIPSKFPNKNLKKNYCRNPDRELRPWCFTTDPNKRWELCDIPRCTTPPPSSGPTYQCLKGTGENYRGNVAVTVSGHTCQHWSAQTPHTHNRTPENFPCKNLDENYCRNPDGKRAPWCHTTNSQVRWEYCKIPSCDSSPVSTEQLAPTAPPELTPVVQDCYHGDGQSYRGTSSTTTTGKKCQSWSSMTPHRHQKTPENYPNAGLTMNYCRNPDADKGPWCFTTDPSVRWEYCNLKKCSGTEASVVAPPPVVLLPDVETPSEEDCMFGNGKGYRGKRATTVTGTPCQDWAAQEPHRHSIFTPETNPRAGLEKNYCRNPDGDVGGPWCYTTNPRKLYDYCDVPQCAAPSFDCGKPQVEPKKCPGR
Chain of Kallikrein (P03952 20-638): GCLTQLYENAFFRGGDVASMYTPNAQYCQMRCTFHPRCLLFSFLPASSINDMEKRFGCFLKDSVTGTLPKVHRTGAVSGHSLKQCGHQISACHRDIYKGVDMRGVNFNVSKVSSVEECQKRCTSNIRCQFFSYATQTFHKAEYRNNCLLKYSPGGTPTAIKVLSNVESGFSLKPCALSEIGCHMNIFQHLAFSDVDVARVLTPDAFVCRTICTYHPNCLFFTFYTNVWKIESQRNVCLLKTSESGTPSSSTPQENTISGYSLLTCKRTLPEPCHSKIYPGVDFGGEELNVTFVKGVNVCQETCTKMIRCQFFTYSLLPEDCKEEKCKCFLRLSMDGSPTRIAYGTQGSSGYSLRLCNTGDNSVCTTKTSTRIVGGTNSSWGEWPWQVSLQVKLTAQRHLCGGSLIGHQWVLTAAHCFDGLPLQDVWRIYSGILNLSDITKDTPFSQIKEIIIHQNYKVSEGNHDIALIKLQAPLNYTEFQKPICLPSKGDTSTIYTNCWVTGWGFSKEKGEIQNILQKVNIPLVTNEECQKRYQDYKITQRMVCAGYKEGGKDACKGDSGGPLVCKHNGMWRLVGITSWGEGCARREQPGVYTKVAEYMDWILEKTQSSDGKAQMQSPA

In the case of `CC(=O)N[C@@H](CCC(=O)O)C(=O)NCC(=O)N[C@@H](CCCN=C(N)N)B(O)O` [OBE2002, Acetyl-Glu-Gly-BoroArg], the IC50 plasmin entry in test [1] was “low IC50 value”. The concentration for half-maximal inhibition (IC50) (usually the concentration needed to halve the response being measured) came to 81.4 nM at Kallikrein, 3800 nM against Plasmin, 33.6 nM against Enteropeptidase [2] and 10.5 nM on Trypsin. For the same compound, in test [3], the IC50 kallikrein entry is listed as “low IC50 value”.

As to `CC1(C)[C@@H]2CC3OB([C@H](CCCNC(=N)N)NC(=O)CNC(=O)[C@@H](N)CCC(=O)O)O[C@@]3(C)[C@H]1C2` (stereo partly shown) [OBE2000], the IC50 in test [1] was found to be 7100 nM; on Thrombin, 3220 nM; on Enteropeptidase [2], 68 nM; in [3], 260 nM. In addition, the IC50 thrombin entry in test [4] is listed as “high value of IC50”. In addition, at Enteropeptidase [5], the IC50 enteropeptidase result was “low value of IC50”.

Turning to `C[C@H](N)C(=O)N[C@@H](Cc1ccccc1)C(=O)N[C@@H](CCCNC(=N)N)B1OC2C[C@@H]3C[C@@H](C3(C)C)[C@]2(C)O1` (stereo partly shown) [OBE1999], the IC50 is 7.5 to 29.8 nM in [1]; 7.5 nM on Kallikrein; 6400 nM on Thrombin; 29.8 nM against Plasmin; 33 nM against Enteropeptidase [5]; 7.5 to 29.8 nM in test [6]. The IC50 in test [3] was in the range of 7.5 to 29.8 nM.
